Tests used:
[1] = system: panel of human cancer (HT-29, DLD-1, HCT116 p53^+/+ and p53^−/−, PSN1, MiaPaCa2, BxPC3, A549, H460, GBM1) and non-cancer cell lines (ARPE-19, MCF10A, NP1); assay: Chemosensitivity of a panel of human cancer and non-cancer cell lines (MTT, 96 h); format: cell-based; conditions: for IC50: HT-29, DLD-1, HCT116 (p53 wild type and null), BxPC3, A549 and H460 cell lines, 96 h, MTT
Protocol: FIG. 7. Chemosensitivity response of a panel of human cancer and non-cancer cell lines to 96 h continuous exposure to self-assembling test compounds. a, The potency of compounds tested against cancer (HT-29, DLD-1, HCT116 p53^+/+ and […], PSN1, MiaPaCa2, BxPC3, A549, H460 and GBM1) and non-cancer cells (ARPE-19, MCF10A and NP1). Each value represents the mean IC50±standard deviation from a minimum of three independent experiments. b,c, The selectivity index (SI) for [L2Cu3]^6+ (b) and [L2Zn3]^6+ (c) for the indicated cancer cell lines; SI is defined as the mean IC50 against the particular non-cancer cell line model divided by the mean IC50 against the particular cancer cell line. […] As the SI value is calculated using the mean IC50 values, experimental error is not included in these figures. d,e, IC50 values for the clinically approved platinates (cisplatin, oxaliplatin and carboplatin) and [L2Mn3]^6+ and the corresponding SI results.
All cell lines used were maintained at low passage in antibiotic-free media and were obtained from ATCC (LGC Standards, Middlesex, UK) unless otherwise stated (Methods). HT29, DLD-1, HCT116 p53^+/+ and HCT116 p53^−/− are all colorectal adenocarcinoma cell lines derived from different individuals and harbor different combinations of oncogenic lesions (except for the HCT116 isogenic cancer cell clones that are genetically identical except for p53 status). PSN-1, BxPC-3 and MiaPaCa2 are pancreatic carcinoma cell lines and A549 and H460 are lung carcinoma cell lines. HT29, DLD-1, PSN-1, BxPC-3, A549 and H460 cell lines were cultured in RPMI-1640 growth media (Sigma) containing 2 mM L-glutamine, 1 mM sodium pyruvate and 10% fetal bovine serum (FBS). HCT116 (p53^+/+ and p53^−/−) and MiaPaCa2 cell lines were cultured in Dulbecco's Modified Eagle's Medium (Sigma), 2 mM L-glutamine and 10% FBS. The ARPE-19 retinal epithelial non-cancer cell line (Dunn et al., 1996) was cultured in DMEM/F12 media (Gibco), 2 mM L-glutamine, 1 mM sodium pyruvate and 10% FBS. The MCF10A non-cancerous human breast epithelial cell line was cultured in Minimal Essential Media Eagle (Sigma), 2 mM L-glutamine, 1 mM sodium pyruvate, 10% FBS and 1×non-essential amino acids (NEAA). NP1 and GBM1 cells were cultured on plasticware coated with poly-L-ornithine (5 μg/ml) and laminin (2.4 μg/ml) (Polson et al., 2018; Da Silva et al., 2019). […]
[L2M3]^6+ and all the other self-assembling complexes were freshly formed by adding DMSO to individual components mixing together by pipetting. […] Media and MTT were removed and formazan crystals were dissolved in 150 μl of DMSO and the absorbance of the resulting solution determined at 540 nm. […]

[2] = Direct ATP hydrolysis by the complex (mass spectroscopy); conditions: ATP incubated with complex alone
Description: There are several potential mechanisms which could lead the observed kinase inhibition ‘readout’ of this screen including, i) direct ATP hydrolysis by the complex(es) and differing Km of the kinases for ATP, and, ii) dephosphorylation of the peptide substrate by the phosphatase activity of the Zn^2+ complex resulting in cycles of peptide phosphorylation by active recombinant enzyme and dephosphorylation by the complex.

chick embryo [3] = assay: Embryonic toxicity, H460 in ovo study; format: in vivo, chick (White Leghorn); conditions: for embryo tolerability: all doses tested, no statistically significant difference to solvent control; for % Alive / % Dead / Alive (embryos at E18) / Dead (embryos at E18): H460 study
Protocol: (§1) 10^6 tumor cells (H460, HT29 or HCT116) were grafted onto the upper chorioallantoic membrane (CAM) of the developing chick embryo on embryonic day 9 (E9). Access to the upper CAM was through a small hole drilled through the eggshell of fertilized White Leghorn eggs (into the air sac) on E9 (15 eggs per experimental group).
(§2) 100 μl of freshly prepared experimental compound, vehicle control or standard-of-care (SoC) drug at their working concentrations were pipetted onto the tumor graft at E11, E13, E15 and E17. On day E18, the upper CAM (with tumor) was removed, washed by PBS buffer and then directly transferred in PFA (fixation for 48 hrs). After that, tumors were carefully cut away from normal CAM tissue and weighed.
(§3) Embryonic viability was checked daily. The number of dead embryos was also counted on E18, to evaluate treatment-induced embryo toxicity.

chick embryo [4] = assay: Embryonic toxicity, HT29 in ovo study; format: in vivo, chick (White Leghorn); conditions: for % Alive / % Dead / Alive (embryos at E18) / Dead (embryos at E18): HT29 study; for embryo tolerability: dose escalation showing no increased embryonic toxicity
Protocol: as §1, §2, §3

[5] = dose [1]: L2Zn3 54 μM, L2Cu3 42 μM
[6] = dose [2]: L2Zn3 108 μM, L2Cu3 84 μM
[7] = dose [3]: L2Zn3 216 μM, L2Cu3 168 μM
[8] = dose [1]: L2Zn3 26.6 μM, L2Cu3 23.8 μM
[9] = dose [2]: L2Zn3 53.2 μM, L2Cu3 65.7 μM
[10] = dose [3]: L2Zn3 106.4 μM, L2Cu3 131.46 μM

## [Cu+2].[Cu+2].[Cu+2].c1ccc(-c2csc(NCCN(CCNc3nc(-c4ccccn4)cs3)CCNc3nc(-c4ccccn4)cs3)n2)nc1.c1ccc(-c2csc(NCCN(CCNc3nc(-c4ccccn4)cs3)CCNc3nc(-c4ccccn4)cs3)n2)nc1 [[L2Cu3]^6+]
[1]
  IC50: mostly sub-μM
[1]; many of the cancer cell lines
  selectivity indices: > 100
[2]
  hydrolysis of ATP: little or no hydrolysis of ATP
Chick embryo [3]
  embryo tolerability: well tolerated
Chick embryo [3]; [5]
  % Alive: 85.71%
  % Dead: 14.29%
  Alive (embryos at E18): 12
  Dead (embryos at E18): 2
Chick embryo [3]; [6]
  % Alive: 92.86%
  % Dead: 7.14%
  Alive (embryos at E18): 13
  Dead (embryos at E18): 1
Chick embryo [3]; [7]
  % Alive: 85.71%
  % Dead: 14.29%
  Alive (embryos at E18): 12
  Dead (embryos at E18): 2
Chick embryo [4]; [8]
  % Alive: 71.43%
  % Dead: 28.57%
  Alive (embryos at E18): 10
  Dead (embryos at E18): 4
Chick embryo [4]; [9]
  % Alive: 85.71%
  % Dead: 14.29%
  Alive (embryos at E18): 12
  Dead (embryos at E18): 2
Chick embryo [4]; [10]
  % Alive: 92.31%
  % Dead: 7.69%
  Alive (embryos at E18): 12
  Dead (embryos at E18): 1
Chick embryo [4]
  embryo tolerability: well tolerated

## [Zn+2].[Zn+2].[Zn+2].c1ccc(-c2csc(NCCN(CCNc3nc(-c4ccccn4)cs3)CCNc3nc(-c4ccccn4)cs3)n2)nc1.c1ccc(-c2csc(NCCN(CCNc3nc(-c4ccccn4)cs3)CCNc3nc(-c4ccccn4)cs3)n2)nc1 [[L2Zn3]^6+]
[1]
  IC50: mostly sub-μM
[2]
  hydrolysis of ATP: little or no hydrolysis of ATP
Chick embryo [3]
  embryo tolerability: well tolerated
Chick embryo [3]; [5]
  % Alive: 92.86%
  % Dead: 7.14%
  Alive (embryos at E18): 13
  Dead (embryos at E18): 1
Chick embryo [3]; [6]
  % Alive: 76.92%
  % Dead: 23.08%
  Alive (embryos at E18): 10
  Dead (embryos at E18): 3
Chick embryo [3]; [7]
  % Alive: 90.91%
  % Dead: 9.09%
  Alive (embryos at E18): 10
  Dead (embryos at E18): 1
Chick embryo [4]; [8]
  % Alive: 85.71%
  % Dead: 14.29%
  Alive (embryos at E18): 12
  Dead (embryos at E18): 2
Chick embryo [4]; [9]
  % Alive: 92.86%
  % Dead: 7.14%
  Alive (embryos at E18): 13
  Dead (embryos at E18): 1
Chick embryo [4]; [10]
  % Alive: 92.86%
  % Dead: 7.14%
  Alive (embryos at E18): 13
  Dead (embryos at E18): 1
Chick embryo [4]
  embryo tolerability: well tolerated

Reference: US20230322815A1, “NOVEL COMPOUNDS AND THERAPEUTIC USES THEREOF” (University of Huddersfield, priority 2020, published 2023)
